{
  "source": "patent US11351142B2",
  "about": "“Composition and method for treating neuronal ceroid lipofuscinosis” (Rush University Medical Center, priority 2012, dated 2022)",
  "key": {"Cln2 mRNA": {"tested_on": "Cln2 mRNA", "assay": "Cln2 mRNA expression by semi-quantitative RT-PCR and real-time PCR in mouse primary astrocytes", "format": "cell-based", "protocol": "Astroglia were isolated from mixed glial cultures as described (17,18) according to the procedure of Giulian and Baker (19). Briefly, on day 9, the mixed glial cultures were washed three times with Dulbecco's modified Eagle's medium/F-12 and subjected to shaking at 240 rpm for 2 h at 37° C. on a rotary shaker to remove microglia. After 2 days, the shaking was repeated for 24 h for the removal of oligodendroglia and to ensure the complete removal of all nonastroglial cells. The attached cells were seeded onto new plates for further studies. Total RNA was isolated from mouse primary astrocytes and human primary astrocytes using RNA-Easy Qiagen (Valencia, Calif.) kit following manufactures protocol. Semi-quantitative RT-PCR was carried out as described earlier (24) using oligo (dT) 12-18 as primer and moloney murine leukemia virus reverse transcriptase (MMLV-RT, Invitrogen) in a 20 μl reaction mixture. The resulting cDNA was appropriately amplified using Promega Master Mix (Madison, Wis.) and the following primers (Invitrogen) for murine genes: The mRNA quantification was performed using the ABI-Prism7700 sequence detection system (Applied Biosystems, Foster City, Calif.) using iTaq™ Fast Supermix With ROX (Bio-Rad, Hercules, Calif.) and the following 6-FAM/ZEN/IBFQ-labeled primers for murine genes: Cln2 and Gapdh (Integrated DNA Technologies Coralville, Iowa). The mRNA expression of the targeted genes was normalized to the level of Gapdh mRNA and data was processed by the ABI Sequence Detection System 1.6 software."}, "TPP1": {"tested_on": "TPP1", "assay": "Western blot and densitometric analysis of TPP1 in mouse primary astrocytes", "format": "cell-based", "protocol": "Astroglia were isolated from mixed glial cultures as described (17,18) according to the procedure of Giulian and Baker (19). Briefly, on day 9, the mixed glial cultures were washed three times with Dulbecco's modified Eagle's medium/F-12 and subjected to shaking at 240 rpm for 2 h at 37° C. on a rotary shaker to remove microglia. After 2 days, the shaking was repeated for 24 h for the removal of oligodendroglia and to ensure the complete removal of all nonastroglial cells. The attached cells were seeded onto new plates for further studies.\nWestern blotting was conducted as described earlier (27,28) with modifications. Briefly, cells were scraped in double-distilled H20 and sodium dodecyl sulfate (SDS), electrophoresed on NuPAGE® Novex® 4-12% Bis-Tris gels (Invitrogen) and proteins transferred onto a nitrocellulose membrane (Bio-Rad) using the Thermo-Pierce Fast Semi-Dry Blotter. The membrane was then washed for 15 min in TBS plus Tween 20 (TBST) and blocked for 1 hr in TBST containing BSA. Next, membranes were incubated overnight at 4° C. under shaking conditions with the following 1° antibodies; TPP1 (1:250, Santa Cruz), β-actin (1:800; Abcam, Cambridge, Mass. The next day, membranes were washed in TBST for 1 hr, incubated in 2° antibodies against 1° antibody hosts (all 1:10,000; Jackson ImmunoResearch) for 1 hr at room temperature, washed for one more hour and visualized under the Odyssey® Infrared Imaging System (Li-COR, Lincoln, Nebr.).\nProtein blots were analyzed using ImageJ (NIH, Bethesda, Md.) and bands were normalized to their respective β-actin loading controls. Data are representative of the average fold change with respect to control for three independent experiments."}},
  "data": [
    {"smiles": "CC1=C(/C=C/C(C)=C/C=C/C(C)=C/C(=O)O)C(C)(C)CCC1", "note": "[RA, all-trans retinoic acid]", "values": [
      {"measurement": "Cln2 level (quantitative real time PCR)", "setting": "Cln2 mRNA; astrocytes with RXRα knockdown (RXRα siRNA), gemfibrozil (10 μM), RA (0.5 μM) alone and in combination", "value": "almost unresponsive"},
      {"measurement": "increase in Cln2 mRNA levels (quantitative real time PCR)", "setting": "Cln2 mRNA; mouse primary astrocytes, 24 hrs, RA 0.5 μM, gemfibrozil 10 μM, combination 10 μM gemfibrozil and 0.5 μM RA", "value": "about 3.5 fold"},
      {"measurement": "induction of TPP1 (immunoblot)", "setting": "TPP1; PPARα−/− astrocytes, RA (0.5 μM) and combination of gemfibrozil (10 μM) and RA (0.5 μM)", "value": "neither RA alone nor the combination could induce TPP1"},
      {"measurement": "TPP1 levels (Western blot, densitometric analysis)", "setting": "TPP1; RXRα siRNA transfected astrocytes, gemfibrozil (10 μM), RA (0.5 μM) alone and in combination", "value": "almost no enhancement"}
    ]}
  ]
}
